Reference: PubChem BioAssay AID252 (DTP/NCI, 2004)
Inconclusive results and toxic doses are left out.

Test system: BDF1 mice, intracerebral L1210 leukemia, survival T/C
Test: NCI In Vivo Anticancer Drug Screen. Data for tumor model L1210 Leukemia (intracerebral) in B6D2F1 (BDF1) mice
Conditions: higher = longer survival
Outline: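 Mice carrying transplanted tumour were dosed with compound; survival was recorded and expressed as treated-group value (T) divided by vehicle-control value (C).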

[1] = endpoint: mean survival time, dose: 37.5 mg/kg/injection, schedule: Q01DX001 (ip), vehicle: carboxymethylcellulose (CMC)
[2] = endpoint: mean survival time, dose: 75.0 mg/kg/injection, schedule: Q01DX001 (ip), vehicle: carboxymethylcellulose (CMC)
[3] = endpoint: mean survival time, dose: 6.25 mg/kg/injection, schedule: Q01DX009 (ip), vehicle: saline

Q: CC(=O)c1ccc(NC(=O)N(CCCl)N=O)cc1 was tested. Which T/C [1] did it give?
A: 117 % of control

Q: And the T/C (endpoint: mean survival time, dose: 50.0 mg/kg/injection, schedule: Q01DX001 (ip), vehicle: carboxymethylcellulose (CMC))?
A: 118 % of control

Q: What about the T/C [2] of the same molecule?
A: 121 % of control

Q: How did the T/C (endpoint: mean survival time, dose: 1.0 mg/kg/injection, schedule: Q01DX009 (ip), vehicle: water) turn out when CC[n+]1ccc(Nc2ccc(NC(=O)c3ccc(Nc4cc[n+](CC)c5ccc(N)cc45)cc3)cc2)cc1 was run?
A: 100 % of control

Q: What about the T/C (endpoint: mean survival time, dose: 2.0 mg/kg/injection, schedule: Q01DX009 (ip), vehicle: water) of the same molecule?
A: 102 % of control

Q: What about the T/C (endpoint: mean survival time, dose: 4.0 mg/kg/injection, schedule: Q01DX009 (ip), vehicle: water) of the same molecule?
A: 111 % of control

Q: What about the T/C (endpoint: mean survival time, dose: 8.0 mg/kg/injection, schedule: Q01DX009 (ip), vehicle: water) of the same molecule?
A: 97 % of control

Q: For Cc1ncc(CNC(=O)N(CCCl)N=O)c(N)n1, which T/C (endpoint: mean survival time, dose: 6.25 mg/kg/injection, schedule: Q01DX001 (ip), vehicle: saline) is on record?
A: 104 % of control

Q: And the T/C [3]?
A: 158 % of control

Q: And the T/C (endpoint: mean survival time, dose: 12.5 mg/kg/injection, schedule: Q01DX009 (ip), vehicle: saline)?
A: 160 % of control

Q: And the T/C (endpoint: mean survival time, dose: 25.0 mg/kg/injection, schedule: Q01DX001 (ip), vehicle: saline)?
A: 153 % of control

Q: And the T/C (endpoint: mean survival time, dose: 50.0 mg/kg/injection, schedule: Q01DX001 (ip), vehicle: saline)?
A: 153 % of control

Q: And the T/C (endpoint: mean survival time, dose: 100.0 mg/kg/injection, schedule: Q01DX001 (ip), vehicle: saline)?
A: 104 % of control

Q: Which T/C (endpoint: mean survival time, dose: 16.6 mg/kg/injection, schedule: Q01DX009 (ip), vehicle: saline) does the source give for CN1CCN(CCCN2c3ccccc3Sc3ccc(Cl)cc32)CC1 here?
A: 108 % of control

Q: What about the T/C (endpoint: mean survival time, dose: 25.0 mg/kg/injection, schedule: Q01DX009 (ip), vehicle: saline) of the same molecule?
A: 103 % of control

Q: What does the source list for CS(=O)(=O)Nc1ccc(Nc2c3ccccc3nc3cc(Cl)ccc23)cc1?
A: T/C (endpoint: mean survival time, dose: 10.0 mg/kg/injection, schedule: Q01DX009 (ip), vehicle: saline): 99 % of control; T/C (endpoint: mean survival time, dose: 10.0 mg/kg/injection, schedule: Q01DX009 (sc), vehicle: saline): 99 % of control; T/C (endpoint: mean survival time, dose: 20.0 mg/kg/injection, schedule: Q01DX009 (ip), vehicle: saline): 98 % of control; T/C (endpoint: mean survival time, dose: 20.0 mg/kg/injection, schedule: Q01DX009 (sc), vehicle: saline): 102 % of control; T/C (endpoint: mean survival time, dose: 40.0 mg/kg/injection, schedule: Q01DX009 (ip), vehicle: saline): 106 % of control; T/C (endpoint: mean survival time, dose: 40.0 mg/kg/injection, schedule: Q01DX009 (sc), vehicle: saline): 114 % of control; T/C (endpoint: mean survival time, dose: 80.0 mg/kg/injection, schedule: Q01DX009 (ip), vehicle: saline): 91 % of control; T/C (endpoint: mean survival time, dose: 80.0 mg/kg/injection, schedule: Q01DX009 (sc), vehicle: saline): 114 % of control

Q: What does the source list for CC1CC(NC(=O)N(CCCl)N=O)CC(C)(C)C1 (centres undefined)?
A: T/C (endpoint: mean survival time, dose: 375.0 mg/kg/injection, schedule: Q01DX001 (ip), vehicle: other): 103 % of control; T/C (endpoint: mean survival time, dose: 500.0 mg/kg/injection, schedule: Q01DX001 (ip), vehicle: other): 124 % of control; T/C (endpoint: mean survival time, dose: 750.0 mg/kg/injection, schedule: Q01DX001 (ip), vehicle: other): 116 % of control

Q: What does the source list for Nc1nc(=S)c2ncn(C3OC(CO)C(O)C3O)c2[nH]1 (centres undefined)?
A: T/C (endpoint: mean survival time, dose: 0.66 mg/kg/injection, schedule: Q01DX015 (ip), vehicle: carboxymethylcellulose (CMC)): 105 % of control; T/C (endpoint: mean survival time, dose: 1.0 mg/kg/injection, schedule: Q01DX015 (ip), vehicle: carboxymethylcellulose (CMC)): 115 % of control; T/C (endpoint: mean survival time, dose: 1.5 mg/kg/injection, schedule: Q01DX015 (ip), vehicle: carboxymethylcellulose (CMC)): 121 % of control; T/C (endpoint: mean survival time, dose: 95.0 mg/kg/injection, schedule: Q01DX001 (ip), vehicle: carboxymethylcellulose (CMC)): 157 % of control; T/C (endpoint: mean survival time, dose: 144.0 mg/kg/injection, schedule: Q01DX001 (ip), vehicle: carboxymethylcellulose (CMC)): 171 % of control; T/C (endpoint: mean survival time, dose: 215.0 mg/kg/injection, schedule: Q01DX001 (ip), vehicle: carboxymethylcellulose (CMC)): 152 % of control

Q: What does the source list for CCOC(=O)c1ccc(NC(=O)N(C)N=O)cc1?
A: T/C [2]: 94 % of control; T/C (endpoint: mean survival time, dose: 150.0 mg/kg/injection, schedule: Q01DX001 (ip), vehicle: carboxymethylcellulose (CMC)): 102 % of control; T/C (endpoint: mean survival time, dose: 300.0 mg/kg/injection, schedule: Q01DX001 (ip), vehicle: carboxymethylcellulose (CMC)): 97 % of control

Q: Which T/C (endpoint: mean survival time, dose: 18.0 mg/kg/injection, schedule: Q01DX001 (ip), vehicle: saline) does the source give for CN(N=O)C(N)=O here?
A: 102 % of control

Q: What about the T/C (endpoint: mean survival time, dose: 36.0 mg/kg/injection, schedule: Q01DX001 (ip), vehicle: saline) of the same molecule?
A: 110 % of control

Q: And the T/C (endpoint: mean survival time, dose: 72.0 mg/kg/injection, schedule: Q01DX001 (ip), vehicle: saline)?
A: 152 % of control

Q: Which results are given for O=NN(CCCl)C(=O)Nc1ccc(F)cc1?
A: T/C (endpoint: mean survival time, dose: 11.0 mg/kg/injection, schedule: Q01DX001 (ip), vehicle: carboxymethylcellulose (CMC)): 109 % of control; T/C (endpoint: mean survival time, dose: 16.6 mg/kg/injection, schedule: Q01DX001 (ip), vehicle: carboxymethylcellulose (CMC)): 112 % of control; T/C (endpoint: mean survival time, dose: 25.0 mg/kg/injection, schedule: Q01DX001 (ip), vehicle: carboxymethylcellulose (CMC)): 109 % of control; T/C [1]: 108 % of control

Q: With CC(=O)Nc1ccc2c(Nc3ccc(NS(C)(=O)=O)cc3)c3ccccc3nc2c1 as the molecule, how does the T/C (endpoint: mean survival time, dose: 1.5 mg/kg/injection, schedule: Q01DX009 (ip), vehicle: saline) read?
A: 89 % of control

Q: What about the T/C (endpoint: mean survival time, dose: 1.5 mg/kg/injection, schedule: Q01DX009 (sc), vehicle: saline) of the same molecule?
A: 98 % of control

Q: What about the T/C (endpoint: mean survival time, dose: 3.0 mg/kg/injection, schedule: Q01DX009 (ip), vehicle: saline) of the same molecule?
A: 98 % of control

Q: And the T/C (endpoint: mean survival time, dose: 3.0 mg/kg/injection, schedule: Q01DX009 (sc), vehicle: saline)?
A: 105 % of control

Q: What about the T/C [3] of the same molecule?
A: 86 % of control

Q: And the T/C (endpoint: mean survival time, dose: 6.25 mg/kg/injection, schedule: Q01DX009 (sc), vehicle: saline)?
A: 109 % of control

Q: And the T/C (endpoint: mean survival time, dose: 12.5 mg/kg/injection, schedule: Q01DX009 (sc), vehicle: saline)?
A: 98 % of control

Q: Which results are given for COc1cc([C@@H]2c3cc4c(cc3[C@@H](OC3OC5COC(C)OC5C(O)C3O)[C@H]3COC(=O)[C@H]23)OCO4)cc(OC)c1O (some centres undefined)?
A: T/C (endpoint: mean survival time, dose: 2.0 mg/kg/injection, schedule: Q01DX009 (oral), vehicle: Klucel (hydroxypropylcellulose) (HPC)): 108 % of control; T/C (endpoint: mean survival time, dose: 4.0 mg/kg/injection, schedule: Q01DX009 (oral), vehicle: Klucel (hydroxypropylcellulose) (HPC)): 118 % of control; T/C (endpoint: mean survival time, dose: 12.0 mg/kg/injection, schedule: Q04DX003 (ip), vehicle: saline): 109 % of control; T/C (endpoint: mean survival time, dose: 16.0 mg/kg/injection, schedule: Q01DX009 (oral), vehicle: Klucel (hydroxypropylcellulose) (HPC)): 116 % of control; T/C (endpoint: mean survival time, dose: 18.0 mg/kg/injection, schedule: Q04DX003 (ip), vehicle: saline): 108 % of control; T/C (endpoint: mean survival time, dose: 27.0 mg/kg/injection, schedule: Q04DX003 (ip), vehicle: saline): 109 % of control; T/C (endpoint: mean survival time, dose: 32.0 mg/kg/injection, schedule: Q01DX009 (oral), vehicle: Klucel (hydroxypropylcellulose) (HPC)): 94 % of control; T/C (endpoint: mean survival time, dose: 40.0 mg/kg/injection, schedule: Q04DX003 (ip), vehicle: saline): 118 % of control; T/C (endpoint: mean survival time, dose: 60.0 mg/kg/injection, schedule: Q04DX003 (ip), vehicle: saline): 110 % of control

Q: How did the T/C (endpoint: mean survival time, dose: 750.0 mg/kg/injection, schedule: Q01DX Z (ip), vehicle: saline) turn out when O=c1cnn(C2OC(CO)C(O)C2O)c(=O)[nH]1 (centres undefined) was run?
A: 158 % of control

Q: Which T/C (endpoint: mean survival time, dose: 2.6 mg/kg/injection, schedule: Q01DX001 (ip), vehicle: saline) does the source give for O=NN(CCCl)C(=O)NC1[C@H](O)CCC[C@@H]1O (some centres undefined) here?
A: 123 % of control

Q: And the T/C (endpoint: mean survival time, dose: 4.0 mg/kg/injection, schedule: Q01DX001 (ip), vehicle: saline)?
A: 112 % of control

Q: And the T/C (endpoint: mean survival time, dose: 9.0 mg/kg/injection, schedule: Q01DX001 (ip), vehicle: saline)?
A: 156 % of control

Q: And the T/C (endpoint: mean survival time, dose: 14.0 mg/kg/injection, schedule: Q01DX001 (ip), vehicle: saline)?
A: 388 % of control

Q: And the T/C (endpoint: mean survival time, dose: 22.0 mg/kg/injection, schedule: Q01DX001 (ip), vehicle: saline)?
A: 324 % of control

Q: For CC1CCC(NC(=O)N(CCF)N=O)CC1 (centres undefined), which T/C (endpoint: mean survival time, dose: 20.0 mg/kg/injection, schedule: Q01DX001 (ip), vehicle: other) is on record?
A: 117 % of control

Q: And the T/C (endpoint: mean survival time, dose: 44.0 mg/kg/injection, schedule: Q01DX001 (ip), vehicle: other)?
A: 212 % of control

Q: And the T/C (endpoint: mean survival time, dose: 66.0 mg/kg/injection, schedule: Q01DX001 (ip), vehicle: other)?
A: 341 % of control

Q: With O=c1[nH]cc(F)c(=O)[nH]1 as the molecule, how does the T/C (endpoint: mean survival time, dose: 12.76 mg/kg/injection, schedule: Q01DX015 (ip), vehicle: carboxymethylcellulose (CMC)) read?
A: 100 % of control

Q: And the T/C (endpoint: mean survival time, dose: 19.43 mg/kg/injection, schedule: Q01DX015 (ip), vehicle: carboxymethylcellulose (CMC))?
A: 111 % of control

Q: What about the T/C (endpoint: mean survival time, dose: 29.0 mg/kg/injection, schedule: Q01DX015 (ip), vehicle: carboxymethylcellulose (CMC)) of the same molecule?
A: 113 % of control

Q: What about the T/C (endpoint: mean survival time, dose: 79.5 mg/kg/injection, schedule: Q01DX001 (ip), vehicle: carboxymethylcellulose (CMC)) of the same molecule?
A: 112 % of control

Q: And the T/C (endpoint: median survival time, dose: 8.4 mg/kg/injection, schedule: Q01DX009 (ip), vehicle: saline)?
A: 105 % of control

Q: What about the T/C (endpoint: median survival time, dose: 14.0 mg/kg/injection, schedule: Q01DX009 (ip), vehicle: saline) of the same molecule?
A: 108 % of control

Q: And the T/C (endpoint: median survival time, dose: 23.0 mg/kg/injection, schedule: Q04DX003 (ip), vehicle: saline)?
A: 108 % of control

Q: What about the T/C (endpoint: median survival time, dose: 39.0 mg/kg/injection, schedule: Q01DX009 (ip), vehicle: saline) of the same molecule?
A: 107 % of control

Q: What about the T/C (endpoint: median survival time, dose: 39.0 mg/kg/injection, schedule: Q04DX003 (ip), vehicle: saline) of the same molecule?
A: 118 % of control

Q: What about the T/C (endpoint: median survival time, dose: 65.0 mg/kg/injection, schedule: Q01DX009 (ip), vehicle: saline) of the same molecule?
A: 96 % of control

Q: What about the T/C (endpoint: median survival time, dose: 108.0 mg/kg/injection, schedule: Q04DX003 (ip), vehicle: saline) of the same molecule?
A: 156 % of control

Q: And the T/C (endpoint: median survival time, dose: 180.0 mg/kg/injection, schedule: Q04DX003 (ip), vehicle: saline)?
A: 99 % of control
